Laboratory results reported in paper PMC10762035, “Molecular basis of human trace amine-associated receptor 1 activation” (Nature Communications, 2024).
Numbering of substitutions follows the chain as printed. “And” between values parts separate entries of the source, which are not always exact repeats. Equal values may be shown once. Read-outs that look alike come from different tables or passages of the source.

Columns and labels:
Assay type in all cases: cell-based
hTA1 S107C = target: T1, hTA1 S107C (Homo sapiens, UniProt Q96RJ0, S107C); experiment: GloSensor cAMP accumulation assay, S107C mutant;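 also: cells transiently co-expressing receptor and GloSensor biosensor, luminescence read after 30 min agonist exposure at room temperature, concentration-response fitted by nonlinear regression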
T1 construct: expressed in transfected cells; host or cells: HEK293T
T1 sequence (Q96RJ0 1-339 S107C): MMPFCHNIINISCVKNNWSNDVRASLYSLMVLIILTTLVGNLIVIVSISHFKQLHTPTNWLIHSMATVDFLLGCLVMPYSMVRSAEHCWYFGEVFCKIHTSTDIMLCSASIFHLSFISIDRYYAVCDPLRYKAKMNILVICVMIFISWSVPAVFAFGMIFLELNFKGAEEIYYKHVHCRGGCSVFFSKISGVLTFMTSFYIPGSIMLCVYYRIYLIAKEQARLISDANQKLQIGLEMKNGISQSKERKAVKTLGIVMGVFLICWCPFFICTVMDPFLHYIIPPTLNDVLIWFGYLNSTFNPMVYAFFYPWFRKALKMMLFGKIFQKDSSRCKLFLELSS

hTA1 b2N = target: T2, hTA1 b2N (Homo sapiens, UniProt Q96RJ0); experiment: GloSensor cAMP accumulation assay, b2N construct; details: b2N; n=2; read-out: Span ± SEM (Emax normalized to β-PEA)
T2 construct: read by me as the first 25 residues of β2AR (N); expressed in transfected cells; host or cells: HEK293T
T2 sequence (Q96RJ0 with tags, fused parts or gaps): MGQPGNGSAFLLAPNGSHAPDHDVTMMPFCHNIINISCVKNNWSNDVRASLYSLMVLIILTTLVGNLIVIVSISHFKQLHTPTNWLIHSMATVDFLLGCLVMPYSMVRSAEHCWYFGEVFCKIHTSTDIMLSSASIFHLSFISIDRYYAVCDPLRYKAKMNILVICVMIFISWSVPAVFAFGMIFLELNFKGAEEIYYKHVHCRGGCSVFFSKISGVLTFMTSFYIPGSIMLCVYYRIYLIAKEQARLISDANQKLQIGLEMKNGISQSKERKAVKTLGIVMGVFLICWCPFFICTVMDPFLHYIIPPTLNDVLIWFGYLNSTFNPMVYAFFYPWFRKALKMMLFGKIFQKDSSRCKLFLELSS

hTA1 C96S = target: T3, hTA1 C96S (Homo sapiens, UniProt Q96RJ0, C96S); experiment: GloSensor cAMP accumulation assay, C96S mutant; details: log[Compound]
T3 construct: expressed in transfected cells; host or cells: HEK293T
T3 sequence (Q96RJ0 1-339 C96S): T1 sequence (Q96RJ0 1-339 S107C) with C96S, C107S

hTA1 C178S = target: T4, hTA1 C178S (Homo sapiens, UniProt Q96RJ0, C178S); experiment: GloSensor cAMP accumulation assay, C178S mutant; details: for C178S - Normalized Luminescence Counts (N=2): log[Compound], single replicates
T4 construct: expressed in transfected cells; host or cells: HEK293T
T4 sequence (Q96RJ0 1-339 C178S): T1 sequence (Q96RJ0 1-339 S107C) with C107S, C178S

CCc1[nH]nc(C(=O)Nc2ccc([C@H]3CNCCO3)cc2)c1C [ralmitaront]
ΔEmax values (each mutant value - WT average) (hTA1 S107C; S107C mutant minus WT average): 1.2358 | Emax values, Mean (hTA1 S107C; S107C mutant, β-PEA = 100, each line an independent experiment, 3 replicates): 57.0471 | Emax (hTA1 S107C; S107C mutant, β-PEA = 100, each line an independent experiment, 3 replicates, read-out: Emax values (Mean)): 41.3% | Emax (hTA1 S107C; S107C, n=2, read-out: Span ± SEM (Emax normalized to β-PEA)): 49.2 ± 7.85% | Emax (hTA1 b2N): 82.5 ± 4.39% | Normalized Luminescence Counts (hTA1 C96S; C96S, M = -5, single replicates (N=2)): 1.4045 and -2.55 and -5.186 and -2.698 and 26.3511 and -6.571 | Normalized Luminescence Counts (hTA1 C96S; C96S, M = -5.522, single replicates (N=2)): -3.209 and -4.527 and -5.845 and -4.6346 and 8.922 and -0.7614 | Normalized Luminescence Counts (hTA1 C96S; C96S, M = -6, single replicates (N=2)): -3.209 and -2.55 and -5.186 and 8.922 and 1.175 and 18.6047 | Normalized Luminescence Counts (hTA1 C96S; C96S, M = -6.522, single replicates (N=2)): -5.186 (2×) and -3.209 and -6.571 and -12.381 and 39.9073 | Normalized Luminescence Counts (hTA1 C96S; C96S, M = -7, single replicates (N=2)): -5.845 and -1.232 and -3.868 and 3.112 and -12.381 and 8.922 | Normalized Luminescence Counts (hTA1 C96S; C96S, M = -7.522, single replicates (N=2)): -5.845 and -2.55 and -6.504 and 10.8582 (2×) and -6.571 | Normalized Luminescence Counts (hTA1 C96S; C96S, M = -8, single replicates (N=2)): -1.232 and -0.5726 and -2.55 and 20.5413 and -0.7614 and 37.9707 | Normalized Luminescence Counts (hTA1 C96S; C96S, M = -8.522, single replicates (N=2)): -1.891 (2×) and -3.209 and -0.7614 (2×) and 14.7315 | Normalized Luminescence Counts (hTA1 C96S; C96S, M = -9, single replicates (N=2)): -3.209 and -0.5726 and -2.55 and 6.985 and 8.922 and 5.048 | Normalized Luminescence Counts (hTA1 C96S; C96S, M = -9.522, single replicates (N=2)): -3.209 and -3.868 and -1.232 and 24.4145 and 3.112 and -8.508 | Normalized Luminescence Counts (hTA1 C96S; C96S, M = -10, single replicates (N=2)): -3.868 and -0.5726 and -1.232 and -0.7614 and -16.2542 (2×) | Normalized Luminescence Counts (hTA1 C96S; C96S, M = -10.522, single replicates (N=2)): -2.55 (2×) and -1.232 and -6.571 and -22.0641 and -10.4444 | Normalized Luminescence Counts (hTA1 C96S; C96S, M = -11, single replicates (N=2)): 0.7455 and 2.064 and -1.232 and 20.5413 and -12.381 and -10.4444 | Normalized Luminescence Counts (hTA1 C96S; C96S, M = -11.522, single replicates (N=2)): 0.7455 and 3.382 and 1.4045 and 16.6681 | Normalized Luminescence Counts (hTA1 C96S; M = -11.522, single replicates, mutant block above C178S): -0.2239 and -0.1784 and -0.4742 and 3.153 and 1.07 and 2.833 | Normalized Luminescence Counts (hTA1 C96S; M = -12, single replicates, mutant block above C178S): -0.6336 and -0.2466 and -0.7474 and 2.192 and 1.657 and 3.26 | Normalized Luminescence Counts (hTA1 C96S; M = -12.522, single replicates, mutant block above C178S): -0.7701 (2×) and -0.4515 and 1.764 and 0.7492 and 1.497 | ΔpEC50 values (each mutant value - WT average), Mean (hTA1 C178S; C178S, each row one experiment (N=2), 3 replicates): -0.4487 and -0.0445 | Emax (hTA1 C178S; C178S, n=2, read-out: Span ± SEM (Emax normalized to β-PEA)): 69.5 ± 2.9% | Emax (hTA1 C178S; C178S, relative to β-PEA, read-out: Emax): 69.5% | Emax values, Mean (hTA1 C178S; C178S, β-PEA = 100, each row one experiment (N=2), 3 replicates): 72.4383 | Emax (hTA1 C178S; C178S, β-PEA = 100, each row one experiment (N=2), 3 replicates, read-out: Emax values, Mean): 66.6% | C178S - Normalized Luminescence Counts (N=2) (hTA1 C178S; M = -5): 73.8012 and 62.4927 and 60.9506 and 66.8043 and 64.022 and 61.0303 | C178S - Normalized Luminescence Counts (N=2) (hTA1 C178S; M = -5.522): 57.6328 and 63.2871 and 59.3151 and 75.9888 and 75.2109 and 62.2569 | C178S - Normalized Luminescence Counts (N=2) (hTA1 C178S; M = -6): 43.2869 and 48.3804 and 55.2496 and 74.2835 and 69.4968 | C178S - Normalized Luminescence Counts (N=2) (hTA1 C178S; M = -6.522): 30.9035 and 28.8942 and 35.67 and 44.4265 and 49.1234 and 56.9916 | C178S - Normalized Luminescence Counts (N=2) (hTA1 C178S; M = -7): 14.8753 and 16.3239 and 23.7072 and 27.2542 and 34.494 and 27.6431
